Laboratory results published in patent US20050100903A1, “Screening method” (priority 2001, published 2005).

Experiments:
[1] = tested on: CEACAM-1 expression in HT29 cells; test: Western Blot of CEACAM expression in HT29 colon carcinoma cells; format: cell-based, human; settings: HT29, 10 ng/ml, 6 hours
Protocol: HT29 colon carcinoma cells were incubated for 6 hours with TNF-α (10 ng/ml). The cells were examined microscopically for vitality, then lysed, their total protein isolated and separated electrophoretically. 8 μg protein was separated per lane. An anti-CEA antibody and an anti-mouse-HRP-coupled secondary antibody (Dianova, Hamburg, Germany) were used for detection. A cross-reacting anti-CEA antibody was chosen to investigate the selectivity of candidate substances for the expression of individual antigens. The selectivity of the substance effects is important since CEACAM-1 and CEACAM-7/CEA and CEACAM-6 can have antagonistic effects on apoptosis.
The proportionality of expression of individual CEACAMs can be quantified in Western Blot after densitometric evaluation (e.g., public domain NIH software IMAGE 1.6.1). The antigens are identified in the Western Blot through assignment to relative molar mass. The molecular size of the individual CEACAMs is described in the literature. The Western Blot was normalized with β-actin (Sigma-Aldrich, Taufkirchen, Germany). This blot (FIG. 6) was subsequently evaluated densitometrically using the NIH Image Software 1.6.1.
200 nM wortmannin (Calbiochem-Novabiochem, Nottingham, UK) was incubated with 1×10^6 cells/well (6-well plate) for 3, 8 or 24 hours. […]

HT29 cells = test: Apoptosis in HT29 cells with or without γ-interferon stimulation, with antibody cross-linking; format: cell-based, human; settings: addition over a short period (500 U/ml, 6 hours)
Protocol: HT29 cells were treated for 6 hours with 500 U/ml γ-interferon. The procedure was also run without interferon stimulation. After change of medium, the cells were treated with primary antibodies as in Example 4. These were: mAb 4D1C2 (anti-CEACAM-1 at 4 μg/ml) or irrelevant mAb 7D11 (anti-β-catenin at 1 μg/ml). A test run without antibody was used as a second negative control.
After medium change, secondary antibody (anti-mouse at 15 μg/ml) was added. After a total experiment duration of 80-96 hours, the level of apoptosis was determined using standard propidium iodide staining or the apoptosis ELISA of ROCHE Molecule Systems, strictly in accordance with the instructions of the manufacturer. All experiments were performed in triplicate and repeated 3× independently. The Wilcoxon signed ranks test was used to assess the significance of the data.

In the case of TNF-α, the “Influence on other proteins of the CEACAM family” value [1] is reported as “without influencing” and the “Upregulation of CEACAM-1 compared to the untreated sample” value ([1]; densitometry of Western Blot normalized with β-actin) is reported as “approximately 2 fold”.
For “gamma-interferon: gamma-interferon, stimulates HT29 cells to produce CEACAM-1”, the “CEACAM-1 production in HT29 cells” value (HT29 cells) was “stimulates”.
